Bridge positions count the residues as written; N and C are the ends. Peptide text beside a SMILES is read from it. * marks the point of attachment. Galloyl = O=C(c1cc(O)c(O)c(O)c1)*
Assays:
[1] = Stability in human saliva (HPLC); format: in vitro ADME; details: 37 °C
Method: The stability of peptides in human saliva (collected from six individual healthy volunteers; three males and three females; minimum age, 29; and maximum age, 36) was investigated by testing the remaining peptide concentration via HPLC system (Waters Pacific Pte Ltd., Singapore). The test was processed following a previous experimental protocol. After centrifuging the saliva and collecting the supernatant, GAPI was added to the sample and incubated at 37 °C for 60 min. A 1 mL sample was taken and analysed using HPLC system.

[2] = Mineralising effects on enamel blocks after pH cycling (SEM-EDS, Micro-CT, XRD); set-up: species or system human; details: sound enamel treated twice daily with 160 μM, n = 8 per group, mean ± SD; for Calcium-to-phosphate molar ratio: 8 days pH cycling (16 h pH 4.5, 8 h pH 7.0), SEM-EDS; for Mineral loss / Lesion depth: 8 days pH cycling, Micro-CT; for Mineral loss: MDV control area − MDV demineralised area
Method: A total of 40 enamel blocks were prepared from extracted sound human molars. The pH-cycling procedure (16 h demineralisation at pH 4.5 and 8 h remineralisation at pH 7.0) was performed on enamel blocks for 8 days, using solutions that contained calcium and phosphate. The enamel blocks from the same tooth were treated twice daily with 160 μM GAPI (GAPI Group), 160 μM GA (GA Group), 160 μM PI (PI Group) and sterile deionised water (Water Group). The structure of the enamel surface was examined using SEM (n = 8 per group). The elemental analysis of enamel surface was conducted using affiliated energy-dispersive X-ray spectroscopy (EDS). The calcium-to-phosphorus molar ratio was calculated.
The mineral loss and lesion depth on the enamel blocks were assessed using microcomputed tomography (Micro-CT) (1172, SkyScan, Antwerp, Belgium) (n = 8 per group). The parameters of Micro-CT were 80 kV voltage and 100 μA current with a voxel size of 12 μm^3. The image was reconstructed with NRecon software 1.7.4.6 (SkyScan, Antwerp, Belgium) and analysed using CTAn 1.20.3.0 (SkyScan, Antwerp, Belgium) to determine the lesion depth and mineral density values (MDVs, gHApcm^−3). The mineral loss = MDV of the control area − MDV of the demineralised area.
The diffraction patterns of the enamel blocks were evaluated using X-ray diffraction analysis (XRD) (Rigaku SmartLab 9 kW, […]) (n = 2 per group).

[3] = system: S. mutans in three-species biofilm; test: Growth kinetics of multiple-species biofilm, PMA-qPCR; format: cell-based, Streptococcus mutans
Method: A multiple-species cariogenic biofilm consisting of S. mutans, L. casei and C. albicans was cultured following a previous protocol. The architecture of the multiple-species biofilm with or without GAPI treatment was assessed using scanning electron microscopy (SEM) and confocal laser scanning microscopy (CLSM). Propidium iodide and […] (DAPI), which highlight bacterial cells, and Concanavalin A (ConA), which labels C. albicans, were used to stain the multiple-species biofilm. The growth kinetics of the multiple-species biofilm were analysed using propidium monoazide–quantitative polymerase chain reaction (PMA-qPCR) (Supplementary Material S1).

Compound	time stable in saliva [1]	Calcium-to-phosphate molar ratio [2]	Mineral loss [2] [gHApcm^−3]	Lesion depth [2] [µm]	reduction of S. mutans in biofilm versus untreated [3]
CC(C)[C@@H]1NC(=O)[C@H](CCCN=C(N)N)NC(=O)[C@H](Cc2ccccc2)NC(=O)[C@@H](NC(=O)[C@H](Cc2c[nH]c3ccccc23)NC(=O)[C@H](CCCN=C(N)N)NC(=O)[C@H](CCCN=C(N)N)NC(=O)c2cc(O)c(O)c(O)c2)CSSC[C@@H](C(=O)N[C@@H](CCCN=C(N)N)C(=O)O)NC(=O)[C@H](CCCCN)NC(=O)[C@H](CCCN=C(N)N)NC(=O)[C@H](Cc2ccc(O)cc2)NC(=O)[C@@H]2CSSC[C@H](NC1=O)C(=O)N[C@@H](Cc1ccc(O)cc1)C(=O)N[C@@H](CCCN=C(N)N)C(=O)NCC(=O)N[C@@H](Cc1ccccc1)C(=O)N2 [GAPI, Gallic-Acid-Polyphemusin-I] (Galloyl-RRWCFRVCYRGFCYRKCR-OH; disulfide 4-17, 8-13)	at least 60 min	–	–	–	–
O=C(O)c1cc(O)c(O)c(O)c1 [GA, gallic acid]	–	1.82 ± 0.08	0.88 ± 0.24	62 ± 12	–
CC(C)[C@@H]1NC(=O)[C@H](CCCNC(=N)N)NC(=O)[C@H](Cc2ccccc2)NC(=O)[C@@H](NC(=O)[C@H](Cc2c[nH]c3ccccc23)NC(=O)[C@H](CCCNC(=N)N)NC(=O)[C@@H](N)CCCNC(=N)N)CSSC[C@@H](C(=O)N[C@@H](CCCNC(=N)N)C(=O)O)NC(=O)[C@H](CCCCN)NC(=O)[C@H](CCCNC(=N)N)NC(=O)[C@H](Cc2ccc(O)cc2)NC(=O)[C@@H]2CSSC[C@H](NC1=O)C(=O)N[C@@H](Cc1ccc(O)cc1)C(=O)N[C@@H](CCCNC(=N)N)C(=O)NCC(=O)N[C@@H](Cc1ccccc1)C(=O)N2 [PI, Polyphemusin I] (H-RRWCFRVCYRGFCYRKCR-OH; disulfide 4-17, 8-13; N-terminus and C-terminus assumed)	–	1.70 ± 0.06	1.32 ± 0.26	96 ± 9	–
CC(C)[C@@H]1NC(=O)[C@H](CCCNC(=N)N)NC(=O)[C@H](Cc2ccccc2)NC(=O)[C@@H](NC(=O)[C@H](Cc2c[nH]c3ccccc23)NC(=O)[C@H](CCCNC(=N)N)NC(=O)[C@H](CCCNC(=N)N)NC(=O)c2cc(O)c(O)c(O)c2)CSSC[C@@H](C(=O)N[C@@H](CCCNC(=N)N)C(=O)O)NC(=O)[C@H](CCCCN)NC(=O)[C@H](CCCNC(=N)N)NC(=O)[C@H](Cc2ccc(O)cc2)NC(=O)[C@@H]2CSSC[C@H](NC1=O)C(=O)N[C@@H](Cc1ccc(O)cc1)C(=O)N[C@@H](CCCNC(=N)N)C(=O)NCC(=O)N[C@@H](Cc1ccccc1)C(=O)N2 [GAPI, Gallic-Acid-Polyphemusin-I] (Galloyl-RRWCFRVCYRGFCYRKCR-OH; disulfide 4-17, 8-13; C-terminus assumed)	–	1.81 ± 0.05	0.89 ± 0.20	64 ± 7	more than 10 fold

— publication PMC10675526, “Development of a Novel Peptide with Antimicrobial and Mineralising Properties for Caries Management” (Pharmaceutics, 2023)
